Source: patent publication US10526316B2, “Quinoxaline and pyridopyrazine derivatives as PI3Kβ inhibitors” (Janssen Pharmaceutica NV, priority 2015, dated 2020)
pIC50, pKd: −log10 of the molar value. Like-named read-outs stand apart in the source and are kept apart here.

What was measured:
[1] = test system: Akt phosphorylated at Ser473 in PC-3 cells; test: Cellular assay: phosphorylation of Akt at Ser473 in PC-3 cells (MSD ELISA); format: cell-based; settings: PC-3 cells, 60 min compound incubation, MSD ELISA, read-out: IC50 pAkt_S473
In short: (§1)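 Electrochemiluminescent sandwich ELISA read-out: phospho-specific capture (Ser473 or Thr308), Sulfo-tag anti-total Akt detection, signal proportional to phospho-Akt. Cells treated 60 min at 37° C with compound, DMSO 0.3%. IC50 fitted from five concentrations.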

[2] = test system: Akt phosphorylated at Thr308 in PC-3 cells; test: Cellular assay: phosphorylation of Akt at Thr308 in PC-3 cells (MSD ELISA); format: cell-based; settings: PC-3 cells, 60 min compound incubation, MSD ELISA, read-out: IC50 pAkt_Thr308
In short: as §1

PI3Kβ = molecular target: T1, PI3Kβ (Homo sapiens, UniProt P42338); test: Enzyme binding assay (KINOMEscan, DiscoveRx); settings: PIK3Cβ_h, read-out: Kd PIK3Cβ_h
T1 construct: purchased DiscoveRx Corporation, San Diego (contract service, KINOMEscan)
In short: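 KINOMEscan binding platform; read-out is the inhibitor binding constant Kd (nM).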

kinase enzymes [3] = molecular target: T2, kinase enzymes (Homo sapiens, UniProt P48736); test: Enzyme binding assay (KINOMEscan, DiscoveRx), further kinases of Table A; settings: PIK3Cγ_h
T2 construct: purchased DiscoveRx Corporation, San Diego (contract service, KINOMEscan)
In short: (§2)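 KINOMEscan readout; values are kinase binding affinities.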

kinase enzymes [4] = molecular target: T3, kinase enzymes (Homo sapiens, UniProt P42336); test: as above; settings: PIK3Cα_h
T3 construct: purchased DiscoveRx Corporation, San Diego (contract service, KINOMEscan)
In short: as §2

kinase enzymes [5] = molecular target: T4, kinase enzymes (Homo sapiens, UniProt P42345); test: as above; settings: MTOR_h
T4 construct: purchased DiscoveRx Corporation, San Diego (contract service, KINOMEscan)
In short: as §2

PI3Kδ = molecular target: T5, PI3Kδ (Homo sapiens, UniProt O00329); test: Enzyme binding assay (KINOMEscan, DiscoveRx); settings: PIK3Cδ_h
T5 construct: purchased DiscoveRx Corporation, San Diego (contract service, KINOMEscan)
T5 sequence (O00329 1-1044): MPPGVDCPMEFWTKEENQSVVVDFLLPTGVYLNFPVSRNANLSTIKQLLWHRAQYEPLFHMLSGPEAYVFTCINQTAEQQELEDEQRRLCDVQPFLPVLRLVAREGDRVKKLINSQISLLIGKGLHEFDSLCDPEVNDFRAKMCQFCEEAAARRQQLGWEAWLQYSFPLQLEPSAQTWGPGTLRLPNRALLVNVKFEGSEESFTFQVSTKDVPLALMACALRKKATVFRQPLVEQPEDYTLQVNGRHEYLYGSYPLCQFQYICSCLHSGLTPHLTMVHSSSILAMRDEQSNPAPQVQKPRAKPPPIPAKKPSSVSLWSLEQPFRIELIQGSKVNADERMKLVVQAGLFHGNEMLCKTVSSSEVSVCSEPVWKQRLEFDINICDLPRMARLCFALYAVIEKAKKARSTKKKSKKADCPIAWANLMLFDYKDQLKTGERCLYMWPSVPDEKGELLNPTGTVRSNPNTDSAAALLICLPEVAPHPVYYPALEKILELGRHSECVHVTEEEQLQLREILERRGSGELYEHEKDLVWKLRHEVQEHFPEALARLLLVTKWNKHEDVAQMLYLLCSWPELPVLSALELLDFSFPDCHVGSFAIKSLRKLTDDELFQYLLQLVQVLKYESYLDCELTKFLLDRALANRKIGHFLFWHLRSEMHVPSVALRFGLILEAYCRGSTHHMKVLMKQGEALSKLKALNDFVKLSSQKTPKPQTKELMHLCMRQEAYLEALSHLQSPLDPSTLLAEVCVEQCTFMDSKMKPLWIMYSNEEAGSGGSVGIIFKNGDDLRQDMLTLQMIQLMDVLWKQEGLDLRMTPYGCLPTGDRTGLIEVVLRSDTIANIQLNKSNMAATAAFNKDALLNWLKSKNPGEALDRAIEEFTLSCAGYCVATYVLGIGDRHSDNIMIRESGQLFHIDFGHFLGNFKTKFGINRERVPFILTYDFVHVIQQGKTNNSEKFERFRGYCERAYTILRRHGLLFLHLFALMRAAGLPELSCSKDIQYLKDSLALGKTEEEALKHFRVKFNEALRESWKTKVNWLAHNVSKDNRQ
In short: as §2

T3 sequence (P42336 whole entry): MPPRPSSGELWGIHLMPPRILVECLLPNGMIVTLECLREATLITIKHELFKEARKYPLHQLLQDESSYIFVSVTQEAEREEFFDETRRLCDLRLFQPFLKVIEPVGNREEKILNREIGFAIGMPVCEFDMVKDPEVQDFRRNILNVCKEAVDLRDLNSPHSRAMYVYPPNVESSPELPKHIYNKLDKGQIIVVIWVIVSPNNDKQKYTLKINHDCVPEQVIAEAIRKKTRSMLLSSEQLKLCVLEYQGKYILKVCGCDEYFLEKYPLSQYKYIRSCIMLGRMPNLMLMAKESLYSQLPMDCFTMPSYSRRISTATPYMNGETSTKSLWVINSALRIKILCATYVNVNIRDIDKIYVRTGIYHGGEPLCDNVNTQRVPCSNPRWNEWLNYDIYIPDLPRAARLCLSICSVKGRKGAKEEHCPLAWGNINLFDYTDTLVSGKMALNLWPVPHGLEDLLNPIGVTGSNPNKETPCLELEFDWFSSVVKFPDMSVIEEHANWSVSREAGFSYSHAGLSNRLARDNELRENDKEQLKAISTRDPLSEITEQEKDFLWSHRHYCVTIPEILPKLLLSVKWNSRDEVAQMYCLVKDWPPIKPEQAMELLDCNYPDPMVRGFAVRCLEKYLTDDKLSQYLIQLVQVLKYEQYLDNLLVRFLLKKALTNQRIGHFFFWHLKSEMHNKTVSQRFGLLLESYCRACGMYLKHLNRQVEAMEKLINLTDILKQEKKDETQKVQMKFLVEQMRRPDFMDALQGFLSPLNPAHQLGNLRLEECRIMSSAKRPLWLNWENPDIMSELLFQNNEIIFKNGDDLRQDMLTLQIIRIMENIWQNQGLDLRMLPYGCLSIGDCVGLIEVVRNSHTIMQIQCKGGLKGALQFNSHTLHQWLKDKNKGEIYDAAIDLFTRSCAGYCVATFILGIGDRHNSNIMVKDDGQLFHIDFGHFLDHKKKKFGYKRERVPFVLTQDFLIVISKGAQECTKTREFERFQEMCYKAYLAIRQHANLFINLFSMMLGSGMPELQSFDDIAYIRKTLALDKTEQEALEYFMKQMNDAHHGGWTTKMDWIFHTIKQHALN
T2 sequence (P48736 whole entry): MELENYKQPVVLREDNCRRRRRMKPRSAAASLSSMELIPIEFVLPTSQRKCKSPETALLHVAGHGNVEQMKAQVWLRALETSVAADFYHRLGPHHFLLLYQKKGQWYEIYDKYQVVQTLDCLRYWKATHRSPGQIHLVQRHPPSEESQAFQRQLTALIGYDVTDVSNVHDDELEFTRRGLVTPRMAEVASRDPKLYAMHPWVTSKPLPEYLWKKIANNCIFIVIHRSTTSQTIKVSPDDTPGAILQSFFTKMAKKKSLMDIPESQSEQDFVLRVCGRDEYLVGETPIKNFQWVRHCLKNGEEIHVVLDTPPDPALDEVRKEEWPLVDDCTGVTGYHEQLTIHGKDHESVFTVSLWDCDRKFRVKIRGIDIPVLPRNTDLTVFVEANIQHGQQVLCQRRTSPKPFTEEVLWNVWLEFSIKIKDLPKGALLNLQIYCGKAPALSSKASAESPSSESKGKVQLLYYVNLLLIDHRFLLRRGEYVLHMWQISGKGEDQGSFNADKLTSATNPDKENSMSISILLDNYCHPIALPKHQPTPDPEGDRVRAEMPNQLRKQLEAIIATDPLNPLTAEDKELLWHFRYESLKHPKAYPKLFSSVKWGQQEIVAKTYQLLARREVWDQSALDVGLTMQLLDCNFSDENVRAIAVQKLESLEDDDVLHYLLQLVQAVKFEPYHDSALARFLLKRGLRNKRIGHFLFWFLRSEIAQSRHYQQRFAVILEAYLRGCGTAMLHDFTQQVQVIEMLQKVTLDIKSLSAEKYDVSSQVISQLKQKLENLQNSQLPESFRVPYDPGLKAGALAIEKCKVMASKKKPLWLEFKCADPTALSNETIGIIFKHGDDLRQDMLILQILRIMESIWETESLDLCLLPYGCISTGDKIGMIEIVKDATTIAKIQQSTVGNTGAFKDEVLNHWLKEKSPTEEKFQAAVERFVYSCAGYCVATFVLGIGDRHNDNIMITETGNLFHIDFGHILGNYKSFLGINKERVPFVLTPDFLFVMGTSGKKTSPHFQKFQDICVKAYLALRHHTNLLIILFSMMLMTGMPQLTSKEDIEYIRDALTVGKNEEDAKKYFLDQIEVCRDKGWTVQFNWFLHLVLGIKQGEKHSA
T1 sequence (P42338 whole entry): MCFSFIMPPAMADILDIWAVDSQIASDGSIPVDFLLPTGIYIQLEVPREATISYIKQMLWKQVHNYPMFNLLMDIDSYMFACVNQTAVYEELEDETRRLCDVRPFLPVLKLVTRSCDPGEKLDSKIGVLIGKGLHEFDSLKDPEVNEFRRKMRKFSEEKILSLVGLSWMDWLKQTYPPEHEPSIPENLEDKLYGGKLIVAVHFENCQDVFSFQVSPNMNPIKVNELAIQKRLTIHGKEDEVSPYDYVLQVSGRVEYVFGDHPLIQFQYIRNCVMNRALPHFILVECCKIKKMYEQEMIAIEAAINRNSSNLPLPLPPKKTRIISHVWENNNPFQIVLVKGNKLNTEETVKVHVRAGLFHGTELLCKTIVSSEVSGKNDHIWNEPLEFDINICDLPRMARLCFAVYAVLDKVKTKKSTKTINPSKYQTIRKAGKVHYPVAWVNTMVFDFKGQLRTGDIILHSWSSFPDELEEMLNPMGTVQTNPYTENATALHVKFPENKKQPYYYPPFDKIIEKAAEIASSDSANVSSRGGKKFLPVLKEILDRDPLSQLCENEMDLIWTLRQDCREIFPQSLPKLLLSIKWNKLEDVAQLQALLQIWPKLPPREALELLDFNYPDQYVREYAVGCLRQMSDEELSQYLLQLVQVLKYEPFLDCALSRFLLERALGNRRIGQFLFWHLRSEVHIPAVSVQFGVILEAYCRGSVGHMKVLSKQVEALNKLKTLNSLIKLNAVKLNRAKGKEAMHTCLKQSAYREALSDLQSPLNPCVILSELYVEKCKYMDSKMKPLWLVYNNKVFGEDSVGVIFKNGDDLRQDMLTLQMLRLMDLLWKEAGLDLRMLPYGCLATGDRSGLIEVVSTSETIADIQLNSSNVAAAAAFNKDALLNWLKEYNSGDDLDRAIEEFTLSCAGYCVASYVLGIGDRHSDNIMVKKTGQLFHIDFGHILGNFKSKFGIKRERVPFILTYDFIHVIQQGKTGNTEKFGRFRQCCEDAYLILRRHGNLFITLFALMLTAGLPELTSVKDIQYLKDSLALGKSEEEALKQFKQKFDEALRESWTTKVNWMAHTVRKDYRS

pIC50 [1] | pIC50 [2] | pKd (PI3Kβ) | pKd (kinase enzymes [3]) | pKd (kinase enzymes [4]) | pKd (kinase enzymes [5]) | pKd (PI3Kδ) | pIC50 ([1]; Homo sapiens, PC-3, 1 h) | pIC50 ([2]; Homo sapiens, PC-3, 1 h) | Compound
< 6.29 | < 6.29 | 6.74 | < 4.52 | 4.99 | 4.59 | 5.24 | – | – | CC(C)NCCNC(=O)c1cc(C(C)Oc2ccc(F)c(F)c2)c2nc(N3CCOCC3)cnc2c1 (single isomer, unassigned) [Compound 286a]
7.46 | 7.59 | 9.00 | 5.16 | 5.61 | < 4.52 | 6.69 | – | – | CC(C)NCCNC(=O)c1cc(C(C)Nc2ccc(F)c(F)c2)c2nc(N3CCOCC3)cnc2c1 (single isomer, unassigned) [Compound 364a]
< 6.29 | < 6.29 | 5.56 | 4.59 | 4.59 | 5.19 | < 4.52 | – | – | CC(Nc1cc(F)cc(F)c1)c1cc(C(=O)NS(=O)(=O)C2CC2)cc2ncc(N3CCOCC3)nc12 (single isomer, unassigned) [Compound 220]
< 6.29 | < 6.29 | 5.60 | 5.35 | < 4.52 | < 4.52 | 4.55 | – | – | CC(Nc1cc(F)cc(F)c1)c1cc(C(=O)NCCO)cc2ncc(N3CCOCC3)nc12 (single isomer, unassigned) [Compound 189]
– | – | 7.21 | 4.70 | 5.14 | < 4.52 | 5.17 | < 6.29 | 6.53 | CC(Nc1cc(F)cc(F)c1)c1cc(-c2cc[nH]n2)cc2ncc(N3CCOCC3)nc12 (centres unmarked) [Compound 304]
– | – | 8.22 | 5.09 | 5.18 | < 4.52 | 6.11 | 6.74 | 6.99 | CC(c1cc(C(=O)N(C)C)cc2ncc(N3CCOCC3)nc12)N(C)c1cccc(Cl)c1 (centres unmarked) [Compound 141]
< 6.29 | < 6.29 | 6.62 | < 4.52 | 4.90 | < 4.52 | 4.71 | – | – | CC(Nc1cc(F)cc(F)c1)c1cc(C(=O)N2CCNC(C(F)(F)F)C2)cc2ncc(N3CCOCC3)nc12 (single isomer, unassigned) [Compound 237d]
6.74 | 6.91 | 8.70 | 5.28 | 6.17 | < 4.52 | 6.68 | – | – | CC(Oc1cc(F)cc(F)c1)c1cc(C(=O)N(C)CCO)cc2ncc(N3CCOCC3)nc12 (single isomer, unassigned) [Compound 61]
< 6.29 | < 6.29 | 5.96 | < 4.52 | < 4.52 | < 4.52 | 4.78 | – | – | CC(Nc1cc(F)cc(F)c1)c1cc(COCCO)cc2ncc(N3CCOCC3)nc12 (single isomer, unassigned) [Compound 178]
< 6.29 | < 6.29 | 6.38 | < 4.52 | 4.56 | < 4.52 | 4.74 | – | – | CC(Nc1cc(F)cc(F)c1)c1cc(C(=O)N2CCOCC2)cc2ncc(N3CCOCC3)nc12 (single isomer, unassigned) [Compound 9]
~6.29 | < 6.29 | 7.60 | 4.91 | 5.73 | < 4.52 | 6.06 | – | – | CN(C)C(=O)c1cc(N2CCC2c2ccc(F)cc2)c2nc(N3CCOCC3)cnc2c1 (single isomer, unassigned) [Compound 397b]
~6.99 | 7.33 | 8.70 | 4.89 | 5.71 | < 4.52 | 6.32 | – | – | CC(Nc1cc(F)cc(F)c1)c1cc(CN2CCOCC23COC3)cc2ncc(N3CCOCC3)nc12 (single isomer, unassigned) [Compound 195]
– | – | 5.98 | < 4.52 | < 4.52 | < 4.52 | < 4.52 | < 6.29 | < 6.29 | CC(Nc1cc(F)cc(F)c1)c1cc(C2=NC(C)(C)CO2)cc2ncc(N3CCOCC3)nc12 (single isomer, unassigned) [Compound 187]
< 6.29 | < 6.29 | 5.95 | 4.91 | 5.31 | 4.67 | 4.82 | – | – | Cc1cccc(N(C)C(C)c2cc(C(=O)N(C)C)cc3ncc(N4CCOCC4)nc23)c1 (single isomer, unassigned) [Compound 128]
6.88 | 6.60 | 7.39 | 5.46 | 5.42 | 4.73 | 5.35 | – | – | CNCCNC(=O)c1cc(C(C)Nc2cccc(F)c2)c2nc(N3CCOCC3)cnc2c1 (single isomer, unassigned) [Compound 139]
– | – | 7.92 | 5.36 | 5.63 | < 4.52 | 5.53 | 6.56 | 7.01 | CC(Nc1cccc(F)c1)c1cc(C(=O)NC[C@@H](C)O)cc2ncc(N3CCOCC3)nc12 (some centres unmarked) [Compound 338]
7.07 | 7.22 | 8.70 | 4.59 | 5.41 | < 4.52 | 6.45 | – | – | CC(Nc1ccc(F)c(F)c1)c1cc(C(=O)N2CCN3CCC[C@@H]3C2)cc2ncc(N3CCOCC3)nc12 (single isomer, unassigned) [Compound 347b]
< 6.29 | < 6.29 | 6.31 | < 4.52 | 4.64 | < 4.52 | 4.81 | – | – | CC(Oc1cc(F)cc(F)c1)c1cc(C(=O)N(C)CCO)cc2ncc(N3CCOCC3)nc12 (single isomer, unassigned) [Compound 60]
– | – | 7.20 | 4.63 | 5.39 | 4.53 | 5.94 | < 6.29 | < 6.29 | Cc1c(F)cccc1CN(C)c1cc(C(=O)N2CCNC(C(F)(F)F)C2)cc2ncc(N3CCOCC3)nc12 (single isomer, unassigned) [Compound 367a]
– | – | 8.15 | < 4.52 | 5.27 | < 4.52 | 5.85 | 6.92 | ~7.64 | CN(C(=O)c1cc(NCc2cc(F)cc(F)c2)c2nc(N3CCOCC3)cnc2c1)[C@H]1CCNC1 [Compound 368]
6.44 | 6.55 | 7.74 | 5.25 | 5.31 | < 4.52 | 5.63 | – | – | CC(Nc1cc(F)c(F)c(F)c1)c1cc(C(=O)NCCN(C)C)cc2ncc(N3CCOCC3)nc12 (single isomer, unassigned) [Compound 309b]
< 6.29 | < 6.29 | 6.22 | < 4.52 | 5.07 | 4.63 | 5.25 | – | – | CC(Oc1cccc(F)c1F)c1cc(C(=O)N(C)C)cc2ncc(N3CCOCC3)nc12 (single isomer, unassigned) [Compound 74]
< 6.29 | < 6.29 | 6.52 | < 4.52 | 4.84 | < 4.52 | 5.26 | – | – | CC(Oc1ccc(Cl)c(F)c1)c1cc(C(=O)N(C)CCN(C)C)cc2ncc(N3CCOCC3)nc12 (single isomer, unassigned) [Compound 313b]
